Laboratory results from patent publication US20240083892A1 (BISICHEM CO., LTD., priority 2021, published 2024).

Key:
RIPK1 [1] = molecular target: T1, RIPK1 (Homo sapiens, UniProt Q13546); test: Cell-based necroptosis assay for RIPK1 activity (cell viability by CCK-8); conditions: HT-29 cells; Z-VAD-FMK 20 μM, human TNFα 10 ng/ml, SM-164 100 nM; 24 h; read-out: Cell-base RIPK1 activity: Necroptosis
T1 construct: endogenous in cells; host or cells: HT-29 (KCLB 30038)
T1 sequence (Q13546 1-671): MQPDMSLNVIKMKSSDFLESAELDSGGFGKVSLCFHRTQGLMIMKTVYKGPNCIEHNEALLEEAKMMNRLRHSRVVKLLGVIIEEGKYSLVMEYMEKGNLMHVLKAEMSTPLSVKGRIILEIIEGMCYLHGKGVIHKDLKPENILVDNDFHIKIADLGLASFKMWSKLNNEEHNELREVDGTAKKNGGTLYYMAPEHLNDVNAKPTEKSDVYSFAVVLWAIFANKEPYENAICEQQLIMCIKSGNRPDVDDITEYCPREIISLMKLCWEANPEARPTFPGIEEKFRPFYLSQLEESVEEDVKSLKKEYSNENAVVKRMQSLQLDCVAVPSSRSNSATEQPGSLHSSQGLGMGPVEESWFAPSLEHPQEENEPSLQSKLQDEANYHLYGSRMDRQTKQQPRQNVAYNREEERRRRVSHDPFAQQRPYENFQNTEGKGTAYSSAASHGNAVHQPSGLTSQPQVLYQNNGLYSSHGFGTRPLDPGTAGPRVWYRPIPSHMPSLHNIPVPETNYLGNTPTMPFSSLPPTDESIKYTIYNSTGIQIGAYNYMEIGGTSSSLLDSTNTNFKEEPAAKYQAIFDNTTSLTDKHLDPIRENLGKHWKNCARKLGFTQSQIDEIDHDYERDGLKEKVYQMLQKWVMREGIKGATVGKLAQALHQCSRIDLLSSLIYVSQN
Description: (§1) Human colon carcinoma cell HT-29 (KCLB 30038), BV2 mouse microglial cell (cell was a kind gift from Dr. Nak-Yun Sung, Senior researcher at Korea Prime Pharmacy CO., LTD.) and human microglial cell HMC3 (ATCC® CRL-3304™). HT-29 cell was grown in Roswell Park Memorial Institute (RPMI) 1640, BV2 cell was grown in Dulbecco's Modified Eagle's Medium (DMEM) and HMC3 cell was grown in Minimum Essential Media Eagle (MEM) supplemented with 10% fetal bovine serum and 1% mixture of penicillin and streptomycin (Gibco). Cells were maintained at 37° C. in a humidified 5% CO2 atmosphere.
To measure the activity of RIPK1 inhibitor in necroptotic cells, HT-29 cells were treated by control DMSO, human TNFα (Peprotech, Rocky Hill, USA), SM-164 (Biovision, California, USA) and a pan-caspase inhibitor Z-VAD-FMK (Invivogen, San Diego, USA). Cells were pretreated with Z-VAD-FMK 20 μM. After 30 min, human TNFα 10 ng/ml, SM-164 100 nM and RIPK1 Inhibitor (0.0001, 0.001, 0.01, 0.02, 0.05, 0.1, 1, 10 uM) were treated for 24 h. Cell viability was measured by Cell Counting Kit 8 (CCK-8) (Dong-in, Seoul, Korea).

RIPK1 [2] = molecular target: T1, RIPK1; test: Immunoblotting of TNFα induced phospho-RIPK1 (ser 166) levels; type: cell-based; conditions: HMC3 cells; Z-VAD-FMK, human TNFα 20 ng/ml, SM-164 100 nM; 7 h, serum free media; read-out: Cell-base RIPK1 activity: phspho-RIPK1 (Ser166)
Description: as §1
Biological activity of the compounds of RIPK1 inhibitor was determined by measuring their ability to inhibitor TNFα induced phospho-RIPK1 (ser 166) levels, phospho-RIPK3 levels, phospho-MLKL levels in HMC3 cells. Cells were pretreated with Z-VAD-FMK […]. After 30 min, human TNFα 20 ng/ml, SM-164 100 nM and RIPK1 inhibitor (0.1, 1, 10 nM) were treated for 7 h under serum free media. Cells were lysed with cold lysis buffer containing 25 mM HEPES pH 7.6, […] NaCl, 1% NP40, 1% sodium deoxycholate, 0.1% SDS, and protease inhibitor mixture (Bimake, Houston, USA) using sonicators. The cells were centrifuged at 15,000 rpm, 4° C. for 5 min. After protein concentration of the lysates (supernatants) was quantified using BCA assay (Thermo Fisher Scientific, Waltham, USA), lysates were mixed with LDS sample buffer and heating at […] for 10 min. (Invitrogen, California, USA). […] The membranes are placed in an image analyzer (Imagequant, LAS 500, GE Healthcare), connected to a computer which allows the image generation (software Image reader LAS 500).

## CN(C(=O)c1ccc2c(c1)N(C)C(=O)[C@@H](NC(=O)n1cc(Cc3cccc(F)c3)cn1)CO2)c1ccncc1 [Example 12, (S)-3-(4-(3-fluorobenzyl)-1H-pyrazole-1-carboxamido)-N,5-dimethyl-4-oxo-N-(pyridin-4-yl)-2,3,4,5-tetrahydrobenzo[b][1,4]oxazepine-7-carboxamide]
RIPK1 [1]
  IC50: 0.01 to 0.05 µM
RIPK1 [2]
  IC50: 0.01 to 0.05 µM

## CN1C(=O)[C@@H](NC(=O)n2cc(Cc3cccc(F)c3)cn2)COc2ccc(O[C@H]3CC[C@H](O)CC3)cc21 [Example 35, 4-(3-fluorobenzyl)-N—((S)-7-(((1r,4S)-4-hydroxycyclohexyl)oxy)-5-methyl-4-oxo-2,3,4,5-tetrahydrobenzo[b][1,4]oxazepin-3-yl)-1H-pyrazole-1-carboxamide]
RIPK1 [1]
  IC50: < 0.01 µM
RIPK1 [2]
  IC50: < 0.01 µM

## CN1C(=O)[C@@H](NC(=O)n2cc(Cc3cccc(F)c3)cn2)COc2ccc(C(=O)N3CCC(C(C)(C)O)CC3)cc21 [Example 6, (S)-4-(3-fluorobenzyl)-N-(7-(4-(2-hydroxypropan-2-yl)piperidine-1-carbonyl)-5-methyl-4-oxo-2,3,4,5-tetrahydrobenzo[b][1,4]oxazepin-3-yl)-1H-pyrazole-1-carboxamide]
RIPK1 [1]
  IC50: < 0.01 µM
RIPK1 [2]
  IC50: < 0.01 µM

## CN(Cc1ccncc1)C(=O)c1ccc2c(c1)N(C)C(=O)[C@@H](NC(=O)n1cc(Cc3cccc(F)c3)cn1)CO2 [Example 11]
RIPK1 [1]
  IC50: < 0.01 µM
RIPK1 [2]
  IC50: < 0.01 µM

## CN1C(=O)[C@@H](NC(=O)n2cc(Cc3cccc(F)c3)cn2)COc2ccc(C(=O)N3CCC(O)CC3)cc21 [Example 4, (S)-4-(3-fluorobenzyl)-N-(7-(4-hydroxypiperidine-1-carbonyl)-5-methyl-4-oxo-2,3,4,5-tetrahydrobenzo[b][1,4]oxazepin-3-yl)-1H-pyrazole-1-carboxamide]
RIPK1 [1]
  IC50: 0.01 to 0.05 µM
RIPK1 [2]
  IC50: < 0.01 µM

## CN1C(=O)[C@@H](NC(=O)n2cc(Cc3cccc(F)c3)cn2)COc2ccc(OCc3ccnc(F)c3)cc21 [Example 60, (S)-4-(3-fluorobenzyl)-N-(7-((2-fluoropyridin-4-yl)methoxy)-5-methyl-4-oxo-2,3,4,5-tetrahydrobenzo[b][1,4]oxazepin-3-yl)-1H-pyrazole-1-carboxamide]
RIPK1 [1]
  IC50: < 0.01 µM
RIPK1 [2]
  IC50: < 0.01 µM

## CN1C(=O)[C@@H](NC(=O)n2cc(Cc3cccc(F)c3)cn2)COc2ccc(OCCCC(C)(C)O)cc21 [Example 26, (S)-4-(3-fluorobenzyl)-N-(7-((4-hydroxy-4-methylpentyl)oxy)-5-methyl-4-oxo-2,3,4,5-tetrahydrobenzo[b][1,4]oxazepin-3-yl)-1H-pyrazole-1-carboxamide]
RIPK1 [1]
  IC50: < 0.01 µM
RIPK1 [2]
  IC50: < 0.01 µM

## CN1C(=O)[C@@H](NC(=O)n2cc(Cc3cccc(F)c3)cn2)COc2ccc(OCC(=O)NC3CC3)cc21 [Example 51, (S)—N-(7-(2-(cyclopropylamino)-2-oxoethoxy)-5-methyl-4-oxo-2,3,4,5-tetrahydrobenzo[b][1,4]oxazepin-3-yl)-4-(3-fluorobenzyl)-1H-pyrazole-1-carboxamide]
RIPK1 [1]
  IC50: < 0.01 µM
RIPK1 [2]
  IC50: < 0.01 µM

## CN1C(=O)[C@@H](NC(=O)n2cc(Cc3cccc(F)c3)cn2)COc2ccc(OCCC(C)(C)O)cc21 [Example 21, (S)-4-(3-fluorobenzyl)-N-(7-(3-hydroxy-3-methylbutoxy)-5-methyl-4-oxo-2,3,4,5-tetrahydrobenzo[b][1,4]oxazepin-3-yl)-1H-pyrazole-1-carboxamide]
RIPK1 [1]
  IC50: < 0.01 µM
RIPK1 [2]
  IC50: < 0.01 µM

## CN1C(=O)[C@@H](NC(=O)n2cc(Cc3cccc(F)c3)cn2)COc2ccc(OCCN3CCC(C)(O)CC3)cc21 [Example 18, (S)-4-(3-fluorobenzyl)-N-(7-(2-(4-hydroxy-4-methylpiperidin-1-yl)ethoxy)-5-methyl-4-oxo-2,3,4,5-tetrahydrobenzo[b][1,4]oxazepin-3-yl)-1H-pyrazole-1-carboxamide]
RIPK1 [1]
  IC50: < 0.01 µM
RIPK1 [2]
  IC50: < 0.01 µM

## CN1C(=O)[C@@H](NC(=O)n2cc(Cc3cccc(F)c3)cn2)COc2ccc(OCc3ccccc3)cc21 [Example 56, (S)—N-(7-(benzyloxy)-5-methyl-4-oxo-2,3,4,5-tetrahydrobenzo[b][1,4]oxazepin-3-yl)-4-(3-fluorobenzyl)-1H-pyrazole-1-carboxamide]
RIPK1 [1]
  IC50: < 0.01 µM
RIPK1 [2]
  IC50: < 0.01 µM

## CN1C(=O)[C@@H](NC(=O)n2cc(Cc3cccc(F)c3)cn2)COc2ccc(OCCCC3CCCCC3)cc21 [Example 16, (S)—N-(7-(3-cyclohexylpropoxy)-5-methyl-4-oxo-2,3,4,5-tetrahydrobenzo[b][1,4]oxazepin-3-yl)-4-(3-fluorobenzyl)-1H-pyrazole-1-carboxamide]
RIPK1 [1]
  IC50: < 0.01 µM
RIPK1 [2]
  IC50: < 0.01 µM

## CN1C(=O)[C@@H](NC(=O)n2cc(Cc3cccc(F)c3)cn2)COc2ccc(OCC(=O)N3CC[C@@H](O)C3)cc21 [Example 47, 4-(3-fluorobenzyl)-N—((S)-7-(2-((R)-3-hydroxypyrrolidin-1-yl)-2-oxoethoxy)-5-methyl-4-oxo-2,3,4,5-tetrahydrobenzo[b][1,4]oxazepin-3-yl)-1H-pyrazole-1-carboxamide]
RIPK1 [1]
  IC50: < 0.01 µM
RIPK1 [2]
  IC50: < 0.01 µM

## CN1C(=O)[C@@H](NC(=O)n2cc(Cc3cccc(F)c3)cn2)COc2ccc(OC3CCC(C)(C)CC3)cc21 [Example 31, (S)—N-(7-((4,4-dimethylcyclohexyl)oxy)-5-methyl-4-oxo-2,3,4,5-tetrahydrobenzo[b][1,4]oxazepin-3-yl)-4-(3-fluorobenzyl)-1H-pyrazole-1-carboxamide]
RIPK1 [1]
  IC50: < 0.01 µM
RIPK1 [2]
  IC50: < 0.01 µM

## COc1cc(COc2ccc3c(c2)N(C)C(=O)[C@@H](NC(=O)n2cc(Cc4cccc(F)c4)cn2)CO3)ccn1 [Example 61, (S)-4-(3-fluorobenzyl)-N-(7-((2-methoxypyridin-4-yl)methoxy)-5-methyl-4-oxo-2,3,4,5-tetrahydrobenzo[b][1,4]oxazepin-3-yl)-1H-pyrazole-1-carboxamide]
RIPK1 [1]
  IC50: < 0.01 µM
RIPK1 [2]
  IC50: < 0.01 µM

## CN1C(=O)[C@@H](NC(=O)n2cc(Cc3cccc(F)c3)cn2)COc2ccc(OC3CCCCC3)cc21 [Example 30, (S)—N-(7-(cyclohexyloxy)-5-methyl-4-oxo-2,3,4,5-tetrahydrobenzo[b][1,4]oxazepin-3-yl)-4-(3-fluorobenzyl)-1H-pyrazole-1-carboxamide]
RIPK1 [1]
  IC50: < 0.01 µM
RIPK1 [2]
  IC50: < 0.01 µM

## CN1C(=O)[C@@H](NC(=O)n2cc(Cc3cccc(F)c3)cn2)COc2ccc(OCC3CCOCC3)cc21 [Example 55, (S)-4-(3-fluorobenzyl)-N-(5-methyl-4-oxo-7-((tetrahydro-2H-pyran-4-yl)methoxy)-2,3,4,5-tetrahydrobenzo[b][1,4]oxazepin-3-yl)-1H-pyrazole-1-carboxamide]
RIPK1 [1]
  IC50: < 0.01 µM
RIPK1 [2]
  IC50: < 0.01 µM

## CN1C(=O)[C@@H](NC(=O)n2cc(Cc3cccc(F)c3)cn2)COc2ccc(OC(C)(C)C(=O)N3CCC(C)(O)CC3)cc21 [Example 42, (S)-4-(3-fluorobenzyl)-N-(7-((1-(4-hydroxy-4-methylpiperidin-1-yl)-2-methyl-1-oxopropan-2-yl)oxy)-5-methyl-4-oxo-2,3,4,5-tetrahydrobenzo[b][1,4]oxazepin-3-yl)-1H-pyrazole-1-carboxamide]
RIPK1 [1]
  IC50: 0.01 to 0.05 µM
RIPK1 [2]
  IC50: 0.01 to 0.05 µM
